Like-named read-outs stand apart in the source and are kept apart here.
Target: EGFR T790M/L858R Ba/F3 cell line (Homo sapiens, UniProt P00533, T790M/L858R, cells depend on it)
Experiment: Ba/F3 cell proliferation model
Assay type: cell-based, murine
Settings: for Activity (% inhibition): combined with cetuximab (% cetuximab, 1.0 μM drug concentration with 1.0 μg/mL cetuximab)
Outline: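 Murine Ba/F3 cells made IL-3-independent by retroviral EGFR L858R/T790M, selected in puromycin (2 μg/ml) and kept in RPMI 1640 with 10% FBS. Cells were exposed to serially diluted compound for 72 h, with growth read by MTS assay in six wells per point and ≥3 repeats. Sigmoidal dose-response non-linear regression gave the values.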

Chain of EGFR T790M/L858R Ba/F3 cell line (P00533 whole entry T790M/L858R): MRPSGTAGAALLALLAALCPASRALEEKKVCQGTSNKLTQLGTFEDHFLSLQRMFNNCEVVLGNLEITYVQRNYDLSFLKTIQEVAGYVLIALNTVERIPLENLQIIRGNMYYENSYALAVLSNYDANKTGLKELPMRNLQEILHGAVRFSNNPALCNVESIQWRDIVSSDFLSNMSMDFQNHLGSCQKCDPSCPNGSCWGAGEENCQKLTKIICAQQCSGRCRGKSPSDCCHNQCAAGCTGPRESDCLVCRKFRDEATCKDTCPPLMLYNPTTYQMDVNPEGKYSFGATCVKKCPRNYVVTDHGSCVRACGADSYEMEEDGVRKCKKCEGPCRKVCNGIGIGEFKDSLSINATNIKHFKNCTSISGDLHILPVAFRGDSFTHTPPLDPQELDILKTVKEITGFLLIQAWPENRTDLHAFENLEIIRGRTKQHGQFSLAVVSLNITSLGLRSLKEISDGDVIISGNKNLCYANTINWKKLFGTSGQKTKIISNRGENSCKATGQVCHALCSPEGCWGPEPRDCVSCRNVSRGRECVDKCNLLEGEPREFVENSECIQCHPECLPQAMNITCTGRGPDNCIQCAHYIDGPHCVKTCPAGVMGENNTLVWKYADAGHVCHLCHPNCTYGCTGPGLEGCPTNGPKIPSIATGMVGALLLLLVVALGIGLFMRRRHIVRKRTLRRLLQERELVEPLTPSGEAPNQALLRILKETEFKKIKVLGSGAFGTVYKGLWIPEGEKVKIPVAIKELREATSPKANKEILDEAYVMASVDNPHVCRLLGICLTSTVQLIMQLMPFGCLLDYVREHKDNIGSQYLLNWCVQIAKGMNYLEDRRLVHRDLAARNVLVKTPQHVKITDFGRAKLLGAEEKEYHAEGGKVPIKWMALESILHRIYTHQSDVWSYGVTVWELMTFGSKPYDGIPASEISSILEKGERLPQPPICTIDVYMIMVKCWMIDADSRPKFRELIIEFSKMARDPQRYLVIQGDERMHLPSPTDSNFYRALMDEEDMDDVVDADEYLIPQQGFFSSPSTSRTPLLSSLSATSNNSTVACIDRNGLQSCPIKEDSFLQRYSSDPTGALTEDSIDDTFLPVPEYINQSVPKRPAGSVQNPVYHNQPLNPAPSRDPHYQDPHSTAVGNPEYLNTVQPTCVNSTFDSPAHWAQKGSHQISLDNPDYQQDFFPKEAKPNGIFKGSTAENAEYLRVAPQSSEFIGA

| SMILES | Activity (% inhibition) | GI50 (compound alone, read-out: L858R/T790M IC50) [µM] | GI50 (read-out: L858R/T790M Cetuximab IC50, in combination with Cetuximab) [µM] |
| --- | --- | --- | --- |
| O=C(Nc1nccs1)[C@@H](c1ccccc1)N1Cc2ccc(-c3ccncc3)cc2C1=O [Compound I-61, (R)-2-(1-oxo-6-(pyridin-4-yl)isoindolin-2-yl)-2-phenyl-N-(thiazol-2-yl)acetamide] | C (a % inhibition of between about 25% to about 50%) |  |  |
| O=C(Nc1ccncc1)[C@@H](c1ccccc1)N1Cc2ccccc2C1=O [Compound I-8, (R)-2-(1-oxoisoindolin-2-yl)-2-phenyl-N-(pyridin-4-yl) acetamide] | A (a % inhibition of about 75%) |  |  |
| O=C(Nc1nccs1)[C@@H](c1ccccc1)N1Cc2ccc(-c3cccs3)cc2C1=O [Compound I-46, (R)-2-(1-oxo-6-(thiophen-2-yl)isoindolin-2-yl)-2-phenyl-N-(thiazol-2-yl)acetamide] | B (a % inhibition of between about 50% to about 75%) |  |  |
| O=C(Nc1nccs1)[C@@H](c1cc(F)ccc1O)N1Cc2ccc(-c3ccc(N4CCNCC4)cc3)cc2C1=O [Compound I-126, (R)-2-(5-fluoro-2-hydroxyphenyl)-2-(1-oxo-6-(4-(piperazin-1-yl)phenyl)isoindolin-2-yl)-N-(thiazol-2-yl)acetamide] | D (a % inhibition of between about 0% to about 25%) | 0.5 to 1 | < 0.5 |
| O=C(Nc1nncs1)[C@@H](c1ccccc1)N1Cc2ccccc2C1=O [Compound I-41, (R)-2-(1-oxoisoindolin-2-yl)-2-phenyl-N-(1,3,4-thiadiazol-2-yl)acetamide] | A (a % inhibition of about 75%) |  |  |
| O=C(Nc1cc(Br)ccn1)[C@H](c1ccccc1)N1Cc2ccccc2C1=O [Compound I-29, (S)-N-(4-bromopyridin-2-yl)-2-(1-oxoisoindolin-2-yl)-2-phenylacetamide] | A (a % inhibition of about 75%) |  |  |
| O=C(Nc1nccs1)[C@@H](Cc1ccccc1)N1Cc2ccccc2C1=O [Compound I-39, (R)-2-(1-oxoisoindolin-2-yl)-3-phenyl-N-(thiazol-2-yl)propanamide] | A (a % inhibition of about 75%) |  |  |
| O=C(NCCN1CCOCC1)c1csc(NC(=O)[C@@H](c2ccccc2)N2Cc3ccccc3C2=O)n1 [Compound I-10, (R)-N-(2-morpholinoethyl)-2-(2-(1-oxoisoindolin-2-yl)-2-phenylacetamido)thiazole-4-carboxamide] | A (a % inhibition of about 75%) |  |  |
| O=C(Nc1nccs1)[C@@H](c1ccccc1)N1Cc2cc(Nc3ccccc3)ccc2C1=O [Compound I-93, (R)-2-(1-oxo-5-(phenylamino)isoindolin-2-yl)-2-phenyl-N-(thiazol-2-yl)acetamide] | A (a % inhibition of about 75%) |  |  |
| COC(=O)c1cc(Br)ccc1N[C@@H](C(=O)Nc1nccs1)c1ccccc1 [Compound I-106, methyl (R)-5-bromo-2-((2-oxo-1-phenyl-2-(thiazol-2-ylamino)ethyl)amino)benzoate] | B (a % inhibition of between about 50% to about 75%) |  |  |
| O=C(Nc1ncc(CCCN2CCOCC2)s1)[C@@H](c1ccccc1)N1Cc2ccccc2C1=O [Compound I-44, (R)-N-(5-(3-morpholinopropyl)thiazol-2-yl)-2-(1-oxoisoindolin-2-yl)-2-phenylacetamide] | A (a % inhibition of about 75%) |  |  |
| O=C(Nc1nc(C(=O)N2CCOCC2)cs1)[C@@H](c1ccccc1)N1Cc2ccccc2C1=O [Compound I-22, (R)-N-(4-(morpholine-4-carbonyl)thiazol-2-yl)-2-(1-oxoisoindolin-2-yl)-2-phenylacetamide] | A (a % inhibition of about 75%) |  |  |
| O=C(Nc1ncco1)[C@@H](c1ccccc1)N1Cc2ccc(-c3ccc4[nH]ccc4c3)cc2C1=O [Compound I-129, (R)-2-(6-(1H-indol-5-yl)-1-oxoisoindolin-2-yl)-N-(oxazol-2-yl)-2-phenylacetamide] | B (a % inhibition of between about 50% to about 75%) |  |  |
| O=C(NCCCN1CCOCC1)c1ccc(-c2ccc3c(c2)C(=O)N([C@@H](C(=O)Nc2nccs2)c2ccccc2)C3)cc1 [Compound I-84, (R)-N-(3-morpholinopropyl)-4-(3-oxo-2-(2-oxo-1-phenyl-2-(thiazol-2-ylamino)ethyl)isoindolin-5-yl)benzamide] | D (a % inhibition of between about 0% to about 25%) |  |  |
| CN(C)CCCCNC(=O)c1cccc(-c2ccc3c(c2)C(=O)N([C@@H](C(=O)Nc2nccs2)c2ccccc2)C3)c1 [Compound I-89, (R)-N-(4-(dimethylamino)butyl)-(3-oxo-2-(2-oxo-1-phenyl-2-(thiazol-2-ylamino)ethyl)isoindolin-5-yl)benzamide] | B (a % inhibition of between about 50% to about 75%) |  |  |
| O=C(Nc1ncccc1F)[C@@H](c1ccccc1)N1Cc2ccccc2C1=O [Compound I-56, (R)-N-(3-fluoropyridin-2-yl)-2-(1-oxoisoindolin-2-yl)-2-phenylacetamide] | B (a % inhibition of between about 50% to about 75%) |  |  |

| SMILES | Activity (% inhibition) | GI50 (compound alone, read-out: L858R/T790M IC50) [µM] | GI50 (read-out: L858R/T790M Cetuximab IC50, in combination with Cetuximab) [µM] |
| --- | --- | --- | --- |
| O=C(Nc1nc(Br)cs1)[C@@H](c1ccccc1)N1Cc2ccccc2C1=O [Compound I-36, (R)-N-(4-bromothiazol-2-yl)-2-(1-oxoisoindolin-2-yl)-2-phenylacetamide] | A (a % inhibition of about 75%) |  |  |
| O=C(NCCCN1CCOCC1)c1csc(NC(=O)[C@@H](c2ccccc2)N2Cc3ccccc3C2=O)n1 [Compound I-14, (R)-N-(3-morpholinopropyl)-2-(2-(1-oxoisoindolin-2-yl)-2-phenylacetamido)thiazole-4-carboxamide] | A (a % inhibition of about 75%) |  |  |
| O=C(Nc1nccs1)[C@@H](c1ccccc1)N1Cc2ccc(Nc3ccccc3)cc2C1=O [Compound I-98, (R)-2-(1-oxo-6-(phenylamino)isoindolin-2-yl)-2-phenyl-N-(thiazol-2-yl)acetamide] | C (a % inhibition of between about 25% to about 50%) |  |  |
| CN(C)CCCNC(=O)c1csc(NC(=O)[C@@H](c2ccccc2)N2Cc3ccccc3C2=O)n1 [Compound I-11, (R)-N-(3-(dimethylamino)propyl)-2-(2-(1-oxoisoindolin-2-yl)-2-phenylacetamido)thiazole-4-carboxamide] | A (a % inhibition of about 75%) |  |  |
| O=C(NCCN1CCOCC1)c1cccc(-c2ccc3c(c2)C(=O)N([C@@H](C(=O)Nc2nccs2)c2ccccc2)C3)c1 [Compound I-90, (R)-N-(2-morpholinoethyl)-3-(3-oxo-2-(2-oxo-1-phenyl-2-(thiazol-2-ylamino)ethyl)isoindolin-5-yl)benzamide] | C (a % inhibition of between about 25% to about 50%) |  |  |
| CN1CCN(c2ccc(-c3ccc4c(c3)CN([C@@H](C(=O)Nc3nccs3)c3ccccc3)C4=O)cc2)CC1 [Compound I-102, (R)-2-(5-(4-(4-methylpiperazin-1-yl)phenyl)-1-oxoisoindolin-2-yl)-2-phenyl-N-(thiazol-2-yl)acetamide] | B (a % inhibition of between about 50% to about 75%) |  |  |
| O=C(Nc1nc2cccnc2s1)[C@@H](c1ccccc1)N1Cc2ccccc2C1=O [Compound I-32, (R)-2-(1-oxoisoindolin-2-yl)-2-phenyl-N-(thiazolo [5,4-b]pyridin-2-yl)acetamide] | A (a % inhibition of about 75%) |  |  |
| O=C(Nc1nccs1)C(c1cccc(F)c1)N1Cc2ccc(-c3ccc(CN4CCNCC4)cc3)cc2C1=O (stereo not drawn) [Compound I-125, 2-(3-fluorophenyl)-2-(1-oxo-6-(4-(piperazin-1-ylmethyl)phenyl)isoindolin-2-yl)-N-(thiazol-2-yl)acetamide] | D (a % inhibition of between about 0% to about 25%) |  |  |
| N#Cc1ccc(-c2ccc3c(c2)C(=O)N([C@H](C(=O)Nc2nccs2)c2ccccc2)C3)cc1F [Compound I-114, (S)-2-(6-(4-cyano-3-fluorophenyl)-1-oxoisoindolin-2-yl)-2-phenyl-N-(thiazol-2-yl)acetamide] | B (a % inhibition of between about 50% to about 75%) |  |  |
| O=C(Nc1nccs1)[C@@H](c1ccccc1)N1Cc2ccc(-c3cccc(F)c3)cc2C1=O [Compound I-76, (R)-2-(6-(3-fluorophenyl)-1-oxoisoindolin-2-yl)-2-phenyl-N-(thiazol-2-yl)acetamide] | B (a % inhibition of between about 50% to about 75%) |  |  |
| O=C(Nc1nccs1)[C@@H](c1ccccc1)N1Cc2ccc(C3=CCCCC3)cc2C1=O [Compound I-86, (R)-2-(6-(cyclohex-1-en-1-yl)-1-oxoisoindolin-2-yl)-2-phenyl-N-(thiazol-2-yl)acetamide] | B (a % inhibition of between about 50% to about 75%) |  |  |
| O=C(Nc1nncs1)[C@@H](c1ccccc1)N1Cc2ccc(-c3ccc4[nH]ccc4c3)cc2C1=O [Compound I-127, (R)-2-(6-(1H-indol-5-yl)-1-oxoisoindolin-2-yl)-2-phenyl-N-(1,3,4-thiadiazol-2-yl)acetamide] | A (a % inhibition of about 75%) |  |  |
| C[C@H](C(=O)Nc1nccs1)N1Cc2ccc(-c3ccc4[nH]ccc4c3)cc2C1=O [Compound I-116, (R)-2-(6-(1H-indol-5-yl)-1-oxoisoindolin-2-yl)-N-(thiazol-2-yl)propanamide] | A (a % inhibition of about 75%) |  |  |
| O=C(Nc1nccs1)C(c1ccccn1)N1Cc2ccc(-c3ccc4[nH]ccc4c3)cc2C1=O (stereo not drawn) [Compound I-123, 2-(6-(1H-indol-5-yl)-1-oxoisoindolin-2-yl)-2-(pyridin-2-yl)-N-(thiazol-2-yl)acetamide] | D (a % inhibition of between about 0% to about 25%) |  |  |
| O=C(Nc1ncc[nH]1)[C@@H](c1ccccc1)N1Cc2ccccc2C1=O [Compound I-34, (R)-N-(1H-imidazol-2-yl)-2-(1-oxoisoindolin-2-yl)-2-phenylacetamide] | A (a % inhibition of about 75%) |  |  |

Reference: US10385019B2, “Inhibitors of EGFR and methods of use thereof” (Dana-Farber Cancer Institute, Inc., priority 2015, dated 2019)
